Experimental data taken from patent US20240254107A1, “RNA-TARGETING LIGANDS, COMPOSITIONS THEREOF, AND METHODS OF MAKING AND USING THE SAME” (THE UNIVERSITY OF NORTH CAROLINA AT CHAPEL HILL, priority 2021, published 2024).
Like-named read-outs stand apart in the source and are kept apart here. Blank lines part the entries; values can stand above or below the molecule they belong to.

Tests used:
TPP riboswitch RNA = experiment: Isothermal titration calorimetry (ITC) binding to TPP riboswitch RNA; settings: for binding cooperativity with 2: ITC with and without pre-bound 2
[1] = system: TPP riboswitch region of the screening construct; experiment: SHAPE / SHAPE-MaP fragment screening and replicate hit validation; assay type: binding; settings: RNA pre-bound to primary fragment, fragment 1 mM, 5NIA reagent
Protocol: Fragments were obtained as a fragment screening library from Maybridge, which was a subset of their Ro3 diversity fragment library and contained 1500 compounds dissolved in DMSO at 50 mM. Most of these compounds adhere to the “rule of three” for fragment compounds; having a molecular mass <300 Da, containing ≤3 hydrogen bond donors and ≤3 hydrogen bond acceptors, and ClogP ≤3.0. All compounds used for ITC, with the exception of those listed in Example 5, were purchased from Millipore-Sigma and used without further purification. Screening experiments were carried out in 25 μL in 96-well plate format on a Tecan Freedom Evo-150 liquid handler equipped with an 8-channel air displacement pipetting arm, disposable filter tips, robotic manipulator arm, and an EchoTherm RIC20 remote controlled heating/cooling dry bath (Torrey Pines Scientific). Liquid handler programs used for screening are available upon request. […]
Once screening of test fragments is complete, statistical tests are carried out to identify differences in modification rates of a given nucleotide. […] That is, if m1 modifications of a tested nucleotide were counted among n1 reads in sample 1 and m2 modifications were counted among n2 reads in sample 2, the tested null hypothesis predicts that among all the counted modifications (m1+m2), the proportion of modifications in sample 1 will be p1=n1/(n1+n2). […]

[2] = Table 4, fragment 5 analogs, pendant groups, ITC, read-out: Kd
[3] = Table 4, fragment 5 analogs, pendant groups, ITC
[4] = Table 8, linked analogs, read-out: Kd

- Kd (TPP riboswitch RNA; [2]): 440 µM
SMILES: COC(=O)c1ccc(Br)nc1 [Compound S5]

- Kd (TPP riboswitch RNA; [2]): 390 µM
SMILES: COC(=O)c1ccc([N+](=O)[O-])nc1 [Compound S6]

- Kd (TPP riboswitch RNA; [2]): 1800 µM
SMILES: CCOc1ccc(C(=O)OC)cn1 [Compound S7]

- Kd (TPP riboswitch RNA; [2]): 1100 µM
SMILES: COC(=O)c1ccc(C)nc1 [Compound S8]

- Kd (TPP riboswitch RNA; [3]): no binding
SMILES: COC(=O)c1ccc(C(F)(F)F)nc1 [Compound S9]

- Kd (TPP riboswitch RNA; [3]): no binding
SMILES: COC(=O)c1ccc(Oc2ccccc2)nc1 [Compound S10]

- Kd (TPP riboswitch RNA; [2]): 820 µM
SMILES: COC(=O)c1cnc(Cl)c(Cl)c1 [Compound S11]

- Kd (TPP riboswitch RNA; [2]): 93 µM
- fold higher affinity for the TPP riboswitch than fragment 5 (TPP riboswitch RNA; relative to fragment 5): approximately threefold
SMILES: COC(=O)c1cnc(Cl)cc1Cl [Compound S12]

- Kd (TPP riboswitch RNA; [2]): 600 µM
SMILES: CCOC(=O)c1ccc(Cl)nc1 [Compound S13]

- Kd (TPP riboswitch RNA; [2]): 1300 µM
SMILES: OCc1ccc(Cl)nc1 [Compound S14]

- Kd (TPP riboswitch RNA; [2]): 1800 µM
SMILES: NC(=O)c1ccc(Cl)nc1 [Compound S15]

- Kd (TPP riboswitch RNA; [2]): 1300 µM
SMILES: NS(=O)(=O)c1ccc(Cl)nc1 [Compound S16]

- Kd (TPP riboswitch RNA; [3]): no binding
SMILES: CCS(=O)(=O)c1ccc(Cl)nc1 [Compound S17]

- Kd (TPP riboswitch RNA; [3]): no binding
SMILES: CN(C)C(=O)c1ccc(Cl)nc1 [Compound S18]

More lines, now with the values behind:

SMILES: c1cc2[nH]cnc2cn1 [Compound 6]
- Kd (TPP riboswitch RNA; Table 3, fragment 5 analogs, pyridine core modifications, ITC, read-out: Kd): 265 µM

SMILES: Cc1ncc(C[n+]2csc(CCOP(=O)([O-])OP(=O)(O)O)c2C)c(N)n1 [Compound 9, thiamine pyrophosphate, reference compound]
- Kd (TPP riboswitch RNA; Table 1, SHAPE-detected fragment hits, ITC, read-out: Kd): 0.028 ± 0.002 µM

SMILES: Cc1cccc2nccnc12 [Compound 23]
- Kd (TPP riboswitch RNA; Table 2B, fragment 2 analogs, pendant groups, ITC, read-out: Kd): 220 µM

SMILES: O=C(O)c1csc2ccc(Cl)cc12 [Compound 29]
- binding detected by SHAPE, second-round screen [1]: induced a very robust change in the SHAPE reactivity signal

SMILES: c1cc(N2CCNCC2)ccn1 [Compound 31]
- binding cooperativity with 2 (TPP riboswitch RNA): clear, but modest, binding cooperativity

SMILES: Cc1cnccc1N1CCNCC1 [Compound 32]
- binding cooperativity with 2 (TPP riboswitch RNA): clear, but modest, binding cooperativity

SMILES: O=C(CCCC(=O)Nc1ccc2nccnc2c1)NO [KW-5-1, N^1-hydroxy-N^5-(quinoxalin-6-yl)glutaramide]
- Kd (TPP riboswitch RNA; [4]): 477 µM

SMILES: O=C(O)CCC(=O)Nc1ccc2nccnc2c1 [KW-16-1]
- Kd (TPP riboswitch RNA; [4]): 653 µM

SMILES: O=C(CNc1cnccc1N1CCNCC1)Nc1ccc2nccnc2c1 [KW-29-1, 2-((4-(piperazin-1-yl)pyridin-3-yl)amino)-N-(quinoxalin-6-yl)acetamide]
- Kd (TPP riboswitch RNA; [4]): 10.5 µM

SMILES: O=C(CNc1ccc2nccnc2c1)NO [KW-31-1, N-hydroxy-2-(quinoxalin-6-ylamino)acetamide]
- Kd (TPP riboswitch RNA; [4]): 58.1 µM

SMILES: CN(C)CCN(C=O)Cc1ccc2nccnc2c1 [KW-79-1, N-(2-(dimethylamino)ethyl)-N-(quinoxalin-6-ylmethyl)formamide]
- Kd (TPP riboswitch RNA; [4]): 69.1 µM
